ChEMBL document CHEMBL5532678, “Comprehensive Insights that Targeting PIM for Cancer Therapy: Prospects and Obstacles” (J Med Chem, 2024)

Assays:
HCT-116 [1] = experiment: Antiproliferative activity against human HCT-116 cells assessed as inhibition of cell growth incubated for 24 hrs by MTT assay; format: functional, cell-based; conditions: HCT-116, 24 h
MCF7 [2] = experiment: Antiproliferative activity against human MCF7 cells assessed as reduction in cell growth incubated for 48 hrs by MTT assay; format: functional, cell-based; conditions: MCF7, 48 h
[3] = biological target: T1, Serine/threonine-protein kinase pim-1 (Homo sapiens, UniProt P11309); experiment: Inhibition of human PIM1 by discoverX kinome scan assay
[4] = biological target: Serine/threonine-protein kinase mTOR (Homo sapiens, UniProt P42345); experiment: Inhibition of mTOR (unknown origin)
[5] = Inhibition of PI3K (unknown origin); set-up: species or system Homo sapiens
[6] = biological target: T1, Serine/threonine-protein kinase pim-1; experiment: Inhibition of PIM1 (unknown origin) by FRET based Z-LYTE kinase assay
[7] = biological target: T2, Serine/threonine-protein kinase pim-2 (Homo sapiens, UniProt Q9P1W9); experiment: Inhibition of PIM2 (unknown origin) by FRET based Z-LYTE kinase assay
[8] = biological target: T3, Serine/threonine-protein kinase pim-3 (Homo sapiens, UniProt Q86V86); experiment: Inhibition of PIM3 (unknown origin) by FRET based Z-LYTE kinase assay
[9] = biological target: Dual specificity protein kinase CLK1 (Homo sapiens, UniProt P49759); experiment: Inhibition of CLK1 (unknown origin) using GRSRSRSRSRSRSRS as substrate incubated for 15 mins in presence of ATP by gamma32P-ATP based analysis
[10] = biological target: T2, Serine/threonine-protein kinase pim-2; experiment: Inhibition of human PIM2 by ADP-Glo luminescent assay
HCT-116 [11] = experiment: Antiproliferative activity against human HCT-116 cells assessed as inhibition of cell growth incubated for 72 hrs by celltiter-glo assay; format: functional, cell-based; conditions: HCT-116, 72 h
MV4-11 = experiment: Antiproliferative activity against human MV4-11 cells assessed as inhibition of cell growth incubated for 72 hrs by Celltiter-glo assay; format: functional, cell-based; conditions: MV4-11, 72 h
[12] = biological target: T1, Serine/threonine-protein kinase pim-1; experiment: Inhibition of human PIM1 by ADP Glo luminescent assay
[13] = biological target: T3, Serine/threonine-protein kinase pim-3; experiment: Inhibition of N-terminal GST-tagged full length human PIM3 (1 to 326 residues) expressed in baculovirus expression system using S6K2 peptide as substrate at 1 uM in presence of ATP by Mobility shift assay
[14] = biological target: T1, Serine/threonine-protein kinase pim-1; experiment: Inhibition of human full length-His6 tagged PIM1 (1 to 312 residues) expressed in Escherichia coli BL21 (DE3) using RSRHSSYPAGT as peptide substrate incubated for 10 mins in presence of [gamma-32P]ATP by radiometric scintillation assay
[15] = biological target: T2, Serine/threonine-protein kinase pim-2; experiment: Inhibition of human full length-His6 tagged PIM2 (1 to 311 residues) expressed in Escherichia coli BL21 (DE3) assessed as inhibition constant using RSRHSSYPAGT as peptide substrate incubated for 10 mins in presence of [gamma-32P]ATP by radiometric scintillation assay
[16] = biological target: T1, Serine/threonine-protein kinase pim-1; experiment: Inhibition of human PIM1 using KKRNRTLTK as substrate in presence of [gamma-33P]-ATP by hotspot kinase assay
[17] = biological target: T4, Polyunsaturated fatty acid 5-lipoxygenase (Homo sapiens, UniProt P09917); experiment: Inhibition of 5-LOX in human PMNL cells; format: cell-based
T4 sequence (P09917 whole entry): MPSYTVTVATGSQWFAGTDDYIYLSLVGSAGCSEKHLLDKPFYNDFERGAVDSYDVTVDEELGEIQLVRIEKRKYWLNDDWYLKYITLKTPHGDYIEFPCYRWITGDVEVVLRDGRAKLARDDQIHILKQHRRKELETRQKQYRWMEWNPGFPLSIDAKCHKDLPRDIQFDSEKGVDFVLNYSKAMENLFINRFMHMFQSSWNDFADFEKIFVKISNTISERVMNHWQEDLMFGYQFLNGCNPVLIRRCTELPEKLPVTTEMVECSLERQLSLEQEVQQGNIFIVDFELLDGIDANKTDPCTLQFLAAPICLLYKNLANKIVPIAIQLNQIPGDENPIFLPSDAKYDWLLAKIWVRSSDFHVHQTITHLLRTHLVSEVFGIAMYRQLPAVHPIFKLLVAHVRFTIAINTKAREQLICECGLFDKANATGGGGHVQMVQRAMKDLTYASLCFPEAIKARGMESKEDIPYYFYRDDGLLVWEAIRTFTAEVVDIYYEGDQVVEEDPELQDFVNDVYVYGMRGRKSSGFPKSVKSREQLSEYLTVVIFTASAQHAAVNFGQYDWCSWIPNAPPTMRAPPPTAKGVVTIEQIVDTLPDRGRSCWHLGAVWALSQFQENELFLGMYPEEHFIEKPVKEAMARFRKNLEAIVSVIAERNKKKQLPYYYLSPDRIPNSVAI

[18] = biological target: Prostaglandin G/H synthase 1 (Homo sapiens, UniProt P23219); experiment: Inhibition of COX1 (unknown origin) fluorescence based analysis
[19] = biological target: T1, Serine/threonine-protein kinase pim-1; experiment: Inhibition of human recombinant PIM1
[20] = biological target: T5, Prostaglandin G/H synthase 2 (Homo sapiens, UniProt P35354); experiment: Inhibition of COX2 (unknown origin) fluorescence based analysis
T5 sequence (P35354 whole entry): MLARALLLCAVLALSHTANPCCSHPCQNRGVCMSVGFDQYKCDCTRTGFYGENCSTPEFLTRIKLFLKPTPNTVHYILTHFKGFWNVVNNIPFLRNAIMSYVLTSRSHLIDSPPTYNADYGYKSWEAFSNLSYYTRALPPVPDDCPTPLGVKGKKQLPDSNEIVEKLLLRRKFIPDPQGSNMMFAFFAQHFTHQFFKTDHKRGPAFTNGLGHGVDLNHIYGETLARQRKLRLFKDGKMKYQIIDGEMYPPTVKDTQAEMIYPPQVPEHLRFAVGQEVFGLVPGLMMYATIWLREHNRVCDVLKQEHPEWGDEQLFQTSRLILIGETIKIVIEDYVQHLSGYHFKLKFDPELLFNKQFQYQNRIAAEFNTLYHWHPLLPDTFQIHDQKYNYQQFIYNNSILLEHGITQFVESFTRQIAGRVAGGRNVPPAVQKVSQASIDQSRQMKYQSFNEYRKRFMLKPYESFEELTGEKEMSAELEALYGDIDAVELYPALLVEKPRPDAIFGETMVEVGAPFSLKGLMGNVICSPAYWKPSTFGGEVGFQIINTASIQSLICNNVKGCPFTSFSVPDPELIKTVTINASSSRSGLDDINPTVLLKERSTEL

[21] = biological target: T2, Serine/threonine-protein kinase pim-2; experiment: Inhibition of N-terminal GST-tagged full length human PIM2 (1 to 311 residues) expressed in baculovirus expression system using S6K2 peptide as substrate at 1 uM in presence of ATP by Mobility shift assay
[22] = biological target: T1, Serine/threonine-protein kinase pim-1
MCF7 [23] = experiment: Cytotoxicity against human MCF7 cells assessed as reduction in cell viability by MTT assay; format: functional, cell-based

Cc1nc2sc3c(c2c(C)c1Br)NC(c1ccc(O)c(O)c1)NC3=O (centres undefined)
IC50 (HCT-116 [1]): 370 nM | IC50 (MCF7 [2]): 220 nM

N#Cc1nnc2c3c(-c4ccccc4Cl)c(C#N)c(=O)[nH]c3nn2c1N
IC50 [3]: 43000 nM

COc1ncc2cc1NS(=O)(=O)c1ccc(F)c(c1)C(=O)NCC1=CC=C(S1)c1ncnc3c1SC2=C3C
IC50 [4]: 74500 nM | IC50 [5]: 0.13 nM

CCOc1cc(/C=C2\SC(=S)NC2=O)ccc1O
IC50 [6]: 420 nM | IC50 [7]: 310 nM | IC50 [8]: 170 nM

NC(=O)c1c(O)cc(O)c2c1oc1cc(O)ccc12
IC50 [9]: 26 nM

Cc1nc2cccc3c2nc1N[C@H](C)/C=C\C[C@H]1CNC(=O)c2cc-3[nH]c21
IC50 [10]: 500 nM | IC50 (HCT-116 [11]): 45300 nM | IC50 (MV4-11): 35500 nM | IC50 [12]: 130 nM

COc1ccc(/C=C/C(/C=C2/C(=O)Nc3cc(Br)ccc32)=N/O)cc1
IC50 [13]: 360 nM | IC50 [14]: 470 nM | IC50 [15]: 220 nM

COc1ncc2cc1NS(=O)(=O)c1cccc(c1)C(=O)NCc1cccc(c1)-c1ncnc3c1SC2=C3
IC50 [4]: > 10000 nM | IC50 [5]: 16.8 nM

COc1cc(C2NC(=O)c3sc4nc(C)c(Br)c(C)c4c3N2)ccc1O (centres undefined)
IC50 (HCT-116 [1]): 360 nM | IC50 (MCF7 [2]): 460 nM

COc1ccc(/C=C/C(=O)CC2(O)C(=O)Nc3cc(Br)ccc32)cc1 (centres undefined)
IC50 [13]: 1740 nM | IC50 [14]: 1620 nM | IC50 [15]: 2460 nM

N#Cc1c(-c2ccccc2)cc(-c2ccccc2)nc1OCCCCC(=O)NO
IC50 [16]: 365 nM

Cc1ccc(C(C)C)c(O)c1/C=N/N=C1/SC(CC(=O)O)C(=O)N1c1cccc2ccccc12 (centres undefined)
IC50 [17]: 3160 nM | IC50 [18]: 200 nM | IC50 [19]: 4090 nM | IC50 [20]: 9110 nM | IC50 [21]: 1740 nM

Fc1cncc(-c2ccc3[nH]c4ncnc(N[C@H]5CC[C@H](N6CCOCC6)CC5)c4c3c2)c1
IC50 [16]: 4.6 nM

NCCN1CCN(CCN2c3ccncc3Oc3ccc(Br)cc32)CC1
IC50 [22]: 0.9 nM

N#Cc1c(-c2ccccc2)cc(-c2ccccc2)nc1OCC(=O)NO
IC50 [16]: 427 nM

COc1ccc(N2CCN(C(=O)c3sc4nc(C)c(Br)c(C)c4c3N)CC2)cc1
IC50 [3]: 12700 nM | IC50 (MCF7 [23]): 107000 nM
